# According to patent US8110654B2, “T cell epitope peptides of ovarian cancer anti-idiotypic antibody 6B11 and use thereof” (Peking University People;s Hospital, priority 2006, dated 2012):
# Assays:
# [1] = tested on: T2 cells loaded with corresponding peptides; assay: 51Cr release assay, peptide-CTLs against T2 cells loaded with peptide; format: cell-based; details: for killing of T2 cells loaded with the peptide by peptide-CTLs: CTLs stimulated three periods, 4 hours, effector/target 40:1 to 5:1; for killing of peptide-stimulated T2 cells after MHC class I molecule blocking: anti-human MHC class I antibodies 1:20 dilution
# Text: (§1) The freeze-stored autologous lymphocytes were stimulated by DCs loaded with the peptides and KLH, to obtain peptide-specific CTLs (peptide-CTLs). One period consists of 7 days. On Day 3 of every period, 10 U/ml rh IL-2 was supplemented. Finally, peptide-CTLs were obtained after a 3-period stimulation.
# (§2) 6B11-CTLs stimulated for one period were harvested and used as reacting cells in cell proliferation assay, ELISA cytokine assay and IFN-γ ELISPOT assay. 6B11-CTLs and peptide-CTLs stimulated for 3 periods were harvested for use in ^51Cr release assay as effector cells.
# (§3) 6B11-CTLs and peptide-CTLs stimulated for three periods were used as effector cells. T2 cells, HOC1A cells and HLE cells loaded with corresponding peptides were used as target cells. Standard ^51Cr release assay was carried out for 4 hours. Target cells (1×10^6 cells) were placed into 0.5 ml RPMI 1640 culture medium (containing 5% fetal bovine serum). 100 μCi Na2^51CrO4 was added. The labeling reaction was allowed to continue overnight at 37° C. Then the cells were washed by cold RPMI 1640 culture medium (containing 5% fetal bovine serum) for three times to terminate the labeling reaction. Target cells (5×10^3 cells) were placed into 100 μl culture medium and then mixed with an equal volume of effector cells in a 96-well plate. The ratio of effector/target was set as 40:1, 20:1, 10:1 and 5:1. Spontaneous release wells contained target cells and the culture medium, while the maximal release wells contained target cells and corresponding culture medium containing 1% Triton X-100. The plates were gently spun using a plate centrifuge for 2 minutes and then co-incubated at 37° C. under 5% CO2 for 4 hours. The plates were gently spun again. 100 μl of supernatant per well was transferred to a counting tube and labeled as appropriate. The cpm values were determined by a γ counter. All assays were performed in duplicate. The ratio of cpm values of the spontaneous release well to the maximal release well was <20%. Killing ratio (%)=[(mean cpm value of the experimental wells−mean cpm value of the spontaneous release wells)/(mean cpm value of the maximal release wells−mean cpm value of the spontaneous release wells)]×100
# (§4) For further analyzing the above-mentioned killing effect, the target cells were blocked by applying anti-human MHC class I antibodies, for evaluating the effect of CTL epitope peptides. Firstly, the optimal concentration of MHC class I antibodies was determined to be 1:20 dilution (FIG. 9). […] The killing effect were not disturbed by MHC class I antibodies, i.e., unrelated to the effect of CD8 T cells. […] Its killing effect was disturbed by MHC class I antibodies, which was mainly mediated by CD8 T cells (FIG. 10). […] The former was unrelated to CD8 T cells whereas the latter was mediated by CD8 T cells.
# [2] = tested on: K562 cells; assay: 51Cr release assay, specific CTLs against K562 cells; format: cell-based; details: non-specific killing
# [3] = tested on: HOC1A cells; assay: 51Cr release assay, specific CTLs against HOC1A cells; format: cell-based; details: for killing of HOC1A cells by peptide-CTLs: CTLs stimulated three periods, 4 hours, effector/target 40:1 to 5:1; for killing effect on HOC1A cells, comparison of antigens: T cells stimulated with single peptide 30 μg/ml, or VH CDR3 15 μg/ml plus VL CDR3 15 μg/ml, or 6B11 40 μg/ml; for killing of HOC1A cells after MHC class I molecule blocking: anti-human MHC class I antibodies 1:20 dilution
# Text: as §1, §2, §3, §4
# For investigating the specificity and effectiveness of the killing effect of T-cell epitope peptides, the following experiments were carried out. T cells were stimulated by VH CDR3 peptide (30 μg/ml, final concentration), VL CDR 3 peptide (30 μg/ml), VH CDR3 peptide (15 μg/ml) and VL CDR3 peptide (15 μg/ml) as well as anti-idiotype antibody 6B11 (40 μg/ml), resulting in corresponding specific CTLs, which were used as effector cells. HOC1A cells were used as target cells for performing ^51Cr release assay, in order to compare the effectiveness of each antigen in stimulating immune responses. […] The killing effect of the specific CTLs obtained by stimulating with the combination of VH CDR3 peptide and VL CDR3 peptide was even stronger, which indicated a synergic effect between them. The killing effect of them was also stronger than that of 6B11-CTLs (FIG. 12). […] Their effects were more accurate than that of anti-idiotype antibody 6B11.
# [4] = tested on: CD4 T cells derived from 6B11-CTLs; assay: Intracellular cytokines of CD4 T cells by flow cytometry; format: cell-based, human; details: 6B11-CTLs co-incubated with peptide-loaded DCs
# Method: The anti-idiotype antibody 6B11-CTLs were co-incubated respectively with DCs loading VH CDR3 peptides and DCs without loading. The production of intracellular cytokines in CD4 T cells derived from the anti-idiotype antibody 6B11-CTLs was detected by flow cytometry.
# [5] = molecular target: HLA-A2 (Homo sapiens, UniProt P04439, D140Y/D185E/D98H/E176V/E277Q/G131W/G231S/I119V/I121R/I166T/I218V/L300P/L318F/N151K/N90K/P208A/P217A/Q86G/Q94H/R138H/R169H/T345S); assay: T2 cell binding assay (HLA class I expression on T2 cells, confocal microscopy); format: cell-based; for T2 binding: key: +++: high binding capacity; ++: moderate binding capacity; +: low binding capacity
# Method: The peptides obtained by […] method and the VH CDR1 and VL CDR2 region peptides were subject to T2 cell binding assay. T2 cells were co-incubated with each peptides in different concentrations (0.3 μg/ml, 3 μg/ml and 30 μg/ml) for 24 hours and then co-incubated with anti-human MHC class I antibodies. The expression profile of HLA class I molecules on the surface of T2 cells was analyzed by confocal microscopy. […] They were synthesized together with the CDR peptides of the anti-idiotype antibody for screening CTL epitope peptides.
Sequence,killing of T2 cells loaded with the peptide by peptide-CTLs [1],killing of peptide-stimulated T2 cells after MHC class I molecule blocking [1],killing of K562 cells by specific CTLs [2],killing of HOC1A cells by peptide-CTLs [3],"killing effect on HOC1A cells, comparison of antigens [3]",killing of HOC1A cells after MHC class I molecule blocking [3],IFN-γ secretion by CD4 T cells [4],IL-4 level in CD4 T cells [4],binding capacity in T2 cell binding assay (in words) ([5]; T2 cells co-incubated with peptide 24 hours),"T2 binding ([5]; T2 cells co-incubated with peptide (0.3, 3, 30 μg/ml) 24 hours, HLA class I surface expression)"
IALITTKIAWYFDV (VH CDR3 region peptide) [VH CDR3 peptide],could kill,could still kill,could kill,could kill,could kill,could still kill,high level,low level,–,–
SQSTHFPYT (VL CDR3 region peptide),could also kill,significantly inhibited,could not kill,could also kill,could kill,significantly inhibited,–,–,moderate binding capacity,++
